# Values of other authors as cited in patent publication US20250332127A1, “SYSTEM AND METHOD FOR DELIVERING THERAPEUTIC AGENTS TO THE UTERINE CAVITY” (priority 2021, published 2025).
# Read-outs that look alike come from different tables or passages of the source.
SMILES,viscosity (at 20 degrees of Celsius),viscosity (trichloroacetic acid as used as therapeutic agent)
O=C=O [CO2],0.0147 centipoise,–
O=C(O)C(Cl)(Cl)Cl [trichloroacetic acid],–,≥ 1 centipoise
